Test: in vitro
Details: human, hela cells, % viability

| SMILES | viability at 28.5 h, 10 µM [%] | viability at 28.5 h, 10 µM (bulk resorufin, single well) [%] |
| --- | --- | --- |
| CCN1CCCCC1CNC(=O)c1sc(C)nc1C (stereo not drawn) [CBK282206] | 90.2 | – |
| Brc1ccc(-c2ccnc3nc(-c4ccncc4)nn23)cc1 [CBK288623] | 102 | – |
| O=C(NCCCN1CCCC(O)C1)N1CCCN(Cc2cccs2)CC1 (stereo not drawn) [CBK307116] | 82 | – |
| CCCCNS(=O)(=O)c1ccccc1[N+](=O)[O-] [CBK261456] | 93.1 | – |
| CCOC(=O)c1c(CN(C)C)n(-c2ccccc2)c2cc(Br)c(OC)cc12 [CBK115360] | 117 | – |
| O=C(Nc1ccccc1)Nc1ccc(=O)n2c1[C@@H]1C[C@@H](CN(C(=O)c3ccc(F)cc3)C1)C2 [CBK288714] | 104 | – |
| Cc1cc(S(=O)(=O)NCC(C)n2nc(C)c(C)c2C)ccc1F (stereo not drawn) [CBK282010] | 87.4 | – |
| CC1CCCC(C)N1CC(O)COc1ccc(/N=C/c2ccccc2)cc1 (stereo not drawn) [CBK261764] | 78.5 | – |
| Cn1ccnc1C1(O)C2CCCC1CN(Cc1ccc(F)c(F)c1)C2 (stereo not drawn) [CBK285189] | 95.1 | – |
| c1coc(-c2nccnc2NCc2ccncc2)c1 [CBK038059] | 105 | – |
| O=c1ccc(O)nn1CN1CCN(Cc2ccccc2)CC1 [CBK265539] | 91.5 | – |
| CCOC(=O)C1CCCN(C(=O)CCn2c(=O)oc3cc(Cl)ccc32)C1 (stereo not drawn) [CBK304516] | 93.8 | – |
| O=S(=O)(c1ccc(C(F)(F)F)cc1Cl)N1CCN(Cc2ccc(F)cc2F)CC1 [CBK062739] | 107 | – |
| Cc1ccc2c(c1)c(NS(C)(=O)=O)nn2Cc1ccc(C#N)cc1 [CBK048643] | 94.2 | – |
| COC(=O)c1ccsc1NS(=O)(=O)c1ccc(C)c([N+](=O)[O-])c1 [CBK039061] | 92.2 | – |
| CCCOc1cccn2c(N(CC(=O)N(C)C)C(C)=O)c(CC)nc12 [CBK147850] | 102 | – |
| Cc1cc(-c2nccnc2NCc2ccccn2)cc(C)c1O [CBK036921] | 94.2 | – |
| O=C(COCc1nc2ccccc2[nH]1)N1CCC(c2ccccc2)C1 (stereo not drawn) [CBK281840] | 97.7 | – |
| CN1CCN(C(c2ccc(O)cc2)c2nnnn2Cc2ccccc2)CC1 (stereo not drawn) [CBK084719] | 94.8 | – |
| COCOc1ccc(-c2ncc(OC)nc2NC(=O)c2cc(C)oc2C)cc1 [CBK145249] | 97.6 | – |
| O=C(Cn1cccc(C(=O)NC2CCCCC2)c1=O)Nc1nc2c(s1)CCCCC2 [CBK286056] | 90.1 | – |
| COc1ccccc1-c1ccccc1CC1(C(=O)NCc2cccc(F)c2)CCOCC1 [CBK286426] | 96.9 | – |
| CCc1nc2c(OCC(=O)c3ccc(Cl)cc3Cl)cccn2c1N(C)C(=O)C1CC1 [CBK147712] | 89.7 | – |

| SMILES | viability at 28.5 h, 10 µM [%] | viability at 28.5 h, 10 µM (bulk resorufin, single well) [%] |
| --- | --- | --- |
| CCCCOc1ccc(NC(=O)NCCC2=CCCCC2)cc1 [CBK043751] | 92.1 | – |
| COc1ccnc(N2CCN(Cc3nnnn3C3CC3)CC2)n1 [CBK305808] | 85.6 | – |
| O=c1c2ccccc2nc(S)n1CC(O)c1ccccc1 (stereo not drawn) [CBK288386] | 85.8 | – |
| O=C(NCC1CCCN1)c1cnn(-c2ccc(Cl)cc2)c1C(F)(F)F (stereo not drawn) [CBK115925C] | 101 | – |
| Cn1c2c(c(=O)n(C)c1=O)CN(CCN1CCNCC1)CN2 [CBK265218] | 104 | – |
| Cc1cc(C)nc(N2CCC(CC(=O)Nc3ccccc3CN3CCCC3)CC2)n1 [CBK286072] | 104 | – |
| COc1cc2c(cc1CNS(=O)(=O)c1ccc3[nH]c(=O)[nH]c(=O)c3c1)CCC2 [CBK286396] | 98.7 | – |
| OCCNc1ncnc2ccc(Br)cc12 [CBK073217] | 93.9 | – |
| O=C(c1cnccn1)N1C[C@@H]2OCC(=O)N(CC3CC3)[C@@H]2C1 [CBK289681] | 91.3 | – |
| Cc1cc(CN2CCC(O)(c3cccnc3F)CC2)oc1C [CBK282124] | 83 | – |
| CCOC(=O)C1CCCN(C(=O)Cn2ccc3sccc3c2=O)C1 (stereo not drawn) [CBK304099] | 100 | – |
| CC(C)N1CC[C@@H]2[C@H]1C(=O)NC[C@H](CCC(=O)NCc1ccc(F)cc1)N2C [CBK289024] | 91.4 | – |
| OCc1cc(N2CCOC3(CCCOC3)C2)ncc1F (stereo not drawn) [CBK304774] | 94.7 | – |
| Cc1nccn1CC1(O)CCN(C(=O)Cc2cccc(F)c2)CC1 [CBK282184] | 109 | – |
| COc1c[nH]c(C(=O)NC(CCn2ccnc2)c2ccccc2)cc1=O (stereo not drawn) [CBK306743] | 94 | – |
| CCCCCOc1ccc(Nc2ccc(-c3cc4ccccc4o3)cn2)cc1 [CBK036828] | 93.6 | – |
| COc1ccc(Cn2c(C3CCNCC3)cc3cccnc32)cc1 [CBK285077] | 96.1 | – |
| CCOC(=O)N1CCC(NC(=O)N2CCN(c3ccc(F)cc3)CC2)CC1 [CBK156429] | 106 | – |
| c1ccc2cc(-c3ccc4c(c3)COC3(CCNCC3)O4)ccc2c1 [CBK060949] | – | 88 |
| CN1CCOc2cc(S(=O)(=O)Nc3nnn[nH]3)ccc21 [CBK062389] | 99.1 | – |
| Cc1ccc(S(N)(=O)=O)cc1C(=O)OCC(=O)c1ccccc1 [CBK264588] | 113 | – |
| CCOC(=O)CN(C)Cc1ccccc1Br [CBK261891] | 108 | – |
| CC(C)(C)c1cn(C[C@H]2CC3CCN2C[C@@H]3C(=O)NC2CCCCC2)nn1 (stereo partly drawn) [CBK289085] | 83.9 | – |

| SMILES | viability at 28.5 h, 10 µM [%] | viability at 28.5 h, 10 µM (bulk resorufin, single well) [%] |
| --- | --- | --- |
| Cc1nc2ccc(C(=O)NC(C)c3ccccn3)cc2s1 (stereo not drawn) [CBK281890] | 94.6 | – |
| O=S(=O)(NCc1ccccc1)N1CCCCCC1 [CBK269569] | 101 | – |
| CCCCCOc1ccc(Nc2cc(-c3ccc(N(C)C)cc3)ncn2)cc1 [CBK090889] | 106 | – |
| CCn1c(CNC(=O)c2cc(C(C)C)on2)nc2ccccc21 [CBK281393] | 94.2 | – |
| CNCc1cccc(OC)c1OCc1ccccc1F [CBK269949C] | 99.2 | – |
| O=C1NC/C=C/CC2(CCN(Cc3ccc(Cl)cn3)CC2)C(=O)NCCOc2ccccc21 [CBK292008] | 103 | – |
| O=C(c1cncnc1)N1CCCc2ccccc21 [CBK200259] | 91.4 | – |
| O=C(COC(=O)c1cc(O)nc2ccccc12)c1ccc(Br)cc1 [CBK262125] | 103 | – |
| NS(=O)(=O)c1ccc(CCNC(=O)/C=C/c2ccccc2[N+](=O)[O-])cc1 [CBK265709] | 101 | – |
| CCOC(=O)C1CCN(S(=O)(=O)c2ccccc2C#N)CC1 [CBK051111] | 93.6 | – |
| Cc1nc(CC(=O)NCc2cccnc2N2CCOCC2)cs1 [CBK304331] | 98.7 | – |
| COc1ccc(S(=O)(=O)N2CCN(c3ccccc3F)CC2)cc1 [CBK070377] | 87.1 | – |
| CN(C)C(=O)CN1CCN(CCc2ccccc2)CC1 [CBK126455] | 98.8 | – |
| COc1cc(C2CC(=O)Nc3nc(N)[nH]c(=O)c32)ccc1OCc1ccc(F)cc1 (stereo not drawn) [CBK293980] | 84.8 | – |
| CC1CCc2nc3ncn(CC(=O)NC4CC4)c(=O)c3cc2C1 (stereo not drawn) [CBK294401] | 88.3 | – |
| COc1ccc2[nH]cc(C3CCN(Cc4nc(C)no4)CC3)c2c1 [CBK305982] | 94.6 | – |
| c1ccc(OCCOc2ccc(N3CCNCC3)nn2)cc1 [CBK022577F] | 109 | – |
| COc1cc(-c2cncc(NCCc3ccncc3)n2)cc(OC)c1OC [CBK065405] | 94.4 | – |
| O=S(=O)(Nc1ncc(Br)c2cccnc12)c1cccc(C(F)(F)F)c1 [CBK073884] | 112 | – |
| CN1CCC[C@H]1c1nc(-c2ccnc(NS(C)(=O)=O)c2)no1 [CBK288884] | 86.8 | – |
| CN(C)CCCNC(=O)c1cc(-c2ccc(Cl)cc2)on1 [CBK116557] | 90.2 | – |
| O=C(Cn1ncc2ccccc2c1=O)NNC(=S)Nc1ccc2c(c1)OCO2 [CBK268751] | 100 | – |
| Cc1ccc(CNC(=O)Cn2nnc(-c3ccc(CN4CCC(S(C)(=O)=O)C4)cc3)n2)cc1 (stereo not drawn) [CBK155407T] | 91.7 | – |

| SMILES | viability at 28.5 h, 10 µM [%] | viability at 28.5 h, 10 µM (bulk resorufin, single well) [%] |
| --- | --- | --- |
| O=C(NCCN1CCOCC1)c1cc(-c2ccc(Cl)cc2)nc2ccccc12 [CBK262650] | 96.6 | – |
| COC(=O)c1ccsc1NS(=O)(=O)c1cc(F)c(Br)cc1F [CBK039068] | 96.5 | – |
| O=C(c1ccco1)c1cnc2ccccn2c1=O [CBK010791] | 109 | – |
| N#Cc1c(NC(=O)C(=O)NCc2ccccn2)sc2c1CCCC2 [CBK269360] | 95.9 | – |
| CC(C)N(C(=O)CN1C(=O)N2CCCN=C2c2ccccc21)C(C)C [CBK284400] | 100 | – |
| COCCn1cc(C(=O)N2CCN(C)CC2C)c2ccccc21 (stereo not drawn) [CBK305123] | – | 102 |
| Cc1cc(NC(=O)c2cc([N+](=O)[O-])ccc2Cl)nc2c1c(=O)oc1ccccc12 [CBK291258] | 90.8 | – |
| Cc1ccc(OCC(=O)NCC2CCN(c3cnn(C)c(=O)c3)C2)cc1 (stereo not drawn) [CBK306693] | 83.6 | – |
| CCOC(=O)c1nc(C)sc1-c1ccnn1S(C)(=O)=O [CBK007130] | 108 | – |
| NNC(=O)/C(=C\c1ccccc1)CCO [CBK261215] | 117 | – |
| COc1ccc(C(=O)Nc2ccc(S(=O)(=O)N3CCN(C)CC3)cc2)cc1 [CBK267622] | 92.8 | – |
| CCOc1ccc(S(=O)(=O)N2CCCN(CC(C)C)CC2)c2cccnc12 [CBK062758] | 97 | – |
| CN1CCN(CC(=O)Nc2sc3c(c2C(=O)Nc2ccccc2)CCCC3)CC1 [CBK268431] | 117 | – |
| CCOC(=O)c1cccc(NS(=O)(=O)c2ccc(-c3ccccc3)cc2)c1 [CBK034341] | 92.8 | – |
| Cc1ccc2cccc(OS(=O)(=O)c3ccc(Cl)c(C)c3Cl)c2n1 [CBK263984] | 53.7 | – |
| COCCCn1c(=O)[nH]c2ncc(-c3cc(OC)c(OC)c(OC)c3)nc21 [CBK064937] | 91.8 | – |
| O=C(NC(=O)c1ccc(F)c(Cl)c1)Nc1nnc(C(F)(F)F)s1 [CBK076830] | 88.6 | – |
| COc1ccccc1-c1cnccc1-n1ccnc1 [CBK177153] | 100 | – |
| COc1nc2ccn(CCNC(=O)C(C)C)c(=O)c2cc1C#N [CBK307015] | 95.8 | – |
| Cc1cccc(CCNC(=O)c2cccn(CC(=O)N(C)C3CCCCC3)c2=O)c1 [CBK286113] | 104 | – |
| CN(CCN1CCCCC1)C(=O)Cn1cnc2ccccc21 [CBK281515] | 90.6 | – |
